In data set [1] the test system is women with low ovarian reserve. The data set is described as follows: Case study: Clomiphene citrate from day 6 of the cycle to avoid pathological premature LH rise, followed by IVF. It is filed as in vivo, human. As for the experimental part:
Women with low ovarian reserve take 50 mg oral Clomiphene Citrate every second day or 25 mg each day after the 6th day of the menstrual cycle until the follicle has reached a desired size of 18-20 mm. Subsequently ovulation is artificially triggered by the administration of GnRH (Gonadotropin releasing hormone) analogs, which is preferred, or human chorionic gonadotropin (HCG), 36-40 h after the administration of the ovulation inducing agent, the women had sexual intercourse. Alternatively, the ovum was obtained after 36 h and was fertilized in vitro in the lab.
A nulliparous person with 6 years of infertility had regular short cycles of 23 days. When they were younger, they had longer cycles of up to 29 days, but starting, their cycles became gradually shorter. […] When a vaginal ultrasound scan was performed that day, a follicle of 14 mm on the left ovary was found. […] Their spouse's semen analysis was normal. They had failed six cycles of gonadotrophins-IUI (intra-uterine inseminations) and 4 IVF attempts. The last two cycles had to be cancelled due to low response in a GnRH antagonist protocol with FSH injections of up to 450 IU per day. On day 7 of their cycle a hormonal assay and vaginal ultrasound scan were performed. […] The women came back two days later. The follicle was gone and an oral contraceptive pill (OCP) for 10 days was started in order to prevent follicle growth during luteal phase. Five days after the last OCP, menstrual bleeding started. No dominant follicle could be seen, serum estradiol was 32 pg/mL and FSH 14 IU/L.
The person was again examined on day 9 of their cycle. […] Since oocytes ovulated from follicles smaller than 16 mm are often of a poor quality and do seldom produce a pregnancy, it was refrained from trying to retrieve the egg this time. The person ovulated the next day.
The person was examined again on day 6 of their next cycle. They had 2 small follicles of 12mm and 11mm on their left ovary. Serum estradiol was 113 pg/mL, FSH 7.7 IU/L and LH 5.6 IU/L. In order to avoid another pathological premature LH rise on a small follicle this cycle, the person was treated with small doses of Clomiphene citrate, i.e. 50mg Clomiphene citrate on day 6, 8 and 10 of the cycle. On day 11 two follicles on the left ovarian was found with sizes of 19mm and 15mm. Serum estradiol was 621 pg/mL and LH […]. Ovulation induction with 0.2mg triptorelix was performed on the evening of the next day and an oocyte was retrieved 36 hours later. Two mature eggs could be retrieved, but only one oocyte could be fertilized by IVF. Vaginal progesterone treatment was started the day of the egg retrieval. The embryo was transferred at day 2. Two weeks later the pregnancy test was positive.

The next data set has as its system endometrium. Details: species or system human. To be noted: in vivo. An excerpt:
Teramoto has therefore used Clomiphene, inter alia, to control the ovulation process in the course of an in vitro fertilization (IVF). To make use of both the stimulating and the inhibiting effect of Clomiphene, Teramoto et al had to administer Clomiphene right at the beginning of the menstrual cycle until the day of induction of ovulation, which is usually between the 10th and 12th day of said cycle. The stimulating effect occurs prior to the 6th cycle day, before a dominant follicle is selected, whereas the inhibiting effect starts on day six or seven after selection of the dominant follicle. However, as we observed, if Clomiphene is administered in the described manner, the growth of the endometrium is inhibited at the same time due to the anti-estrogenic effect of Clomiphene (blocking of the estrogen receptors) and thus the embryos should not be transferred in the same cycle, because implantation success rate is low. In order to increase the implantation success rate, the resulting embryos should be frozen and transferred in the next cycle where no Clomiphene medication is conducted.

“And” between values parts separate entries of the source, which are not always exact repeats. Equal entries are not always repeated. Structures can show the parent of a compound that is named as a salt.

For the compound `CCN(CC)CCOc1ccc(C(=C(Cl)c2ccccc2)c2ccccc2)cc1` [Clomiphene citrate], the “oocytes fertilized by IVF” value in data set [1] (of the two mature eggs retrieved) is on record as “only one”. Further, in data set [1] (person, 50mg Clomiphene citrate on day 6, 8 and 10 of the cycle, day 11, two follicles on the left ovary (12mm and 11mm on day 6)), the follicle size is 19 mm and 15 mm. This compound registered a Serum estradiol in data set [1] (person, 50mg on day 6, 8 and 10 of the cycle, measured on day 11 (113 pg/mL on day 6)) of 621 pg/mL. The compound also showed an LH in data set [1] (person, 50mg on day 6, 8 and 10 of the cycle, measured on day 11 (5.6 IU/L on day 6)) of 7.4 IU/L. The mature eggs retrieved result in data set [1] (retrieval 36 hours after ovulation induction with 0.2mg triptorelix on the evening of day 12) is on record as “Two”. Moreover, the pregnancy test result in data set [1] (two weeks after embryo transfer at day 2, same cycle) is “positive”.
As to `CCN(CC)CCOc1ccc(C(=C(Cl)c2ccccc2)c2ccccc2)cc1` [Clomiphene], the “growth of the endometrium” value with endometrium was “inhibited”.

Source of the values: patent publication EP2417971A1, “Clomiphene for use in increasing the chances of pregnancy of women having a low ovarian reserve” (Nitzschke, Markus, priority 2010, dated 2012).
